In patent publication US10399949B2, “NK1 receptor antagonist” (KISSEI PHARMACEUTICAL CO., LTD., priority 2015, dated 2019):

What was measured:
[1] = Measurement of drug concentrations in the brain after foot-tapping test; type: in vivo; details: male gerbil; 0.3 mg/kg from the jugular vein; brain extracted after foot-tapping was finished; LC/MS
Procedure: (§1) A male gerbil (Japan SLC) was anesthetized with isoflurane, and 0.3 mg/kg of a test compound was administered from the jugular vein. After 4 hours, GR73632 (5 pmol/5 μL saline), which is an NK1 receptor agonist, was administered into the cerebral ventricle at the part 1 mm lateral to and 4.5 mm below the bregma in the head, under anesthesia with isoflurane. After the administration, the gerbil was moved to an observation cage, and the foot-tapping period during 30 minutes after the recovery of the righting reflex was measured. As a comparative example, aprepitant, which is an NK1 receptor antagonist, was tested in the same manner. The foot-tapping inhibition rate (%) of each test compound was calculated by the following equation. Foot-tapping inhibition rate (%)={1−(Foot-tapping period when test compound was administered)/(Foot-tapping period when solvent was administered)}×100 (2) Measurement of Drug Concentrations
After foot-tapping was finished, laparotomy was performed immediately under anesthesia with ether, and a blood sample was taken from the abdominal vena cava. At the same time, the brain was extracted. Through a quantitative analysis using liquid chromatography-mass spectrometry (LC/MS), the concentrations of the test compound in the plasma and the brain were measured.
In the table, Ex. No. means the Example number. […]

[2] = molecular target: T1, NK1 receptor (Meriones unguiculatus, UniProt Q5DUB1); test: Effect on foot-tapping induced by NK1 receptor agonist GR73632 in gerbil; type: in vivo; details: male gerbil; 0.3 mg/kg from the jugular vein; GR73632 into the cerebral ventricle after 4 hours; foot-tapping period during 30 minutes
T1 construct: from tissue; host or cells: living male gerbil, central nervous system
Procedure: (1) Effect on Foot-tapping
The test compound solution was prepared by dissolving the test compound in a vehicle (a mixture of 50% N,N-dimethylacetamide (Wako Pure Chemical Industries), 30% propylene glycol (Wako Pure Chemical Industries), 4% 2-hydroxypropyl-β-cyclodextrin (Wako Pure Chemical Industries) and 16% distilled water).
as §1
In the table, Ex. No. means the Example number. Inhibition (%) means the foot-tapping inhibition rate, and Conc. […]

[3] = molecular target: T2, human NK1 receptor (Homo sapiens, UniProt P25103); test: Affinity for human NK1 receptor (125I-substance P receptor binding test, membrane fraction); details: membrane fraction of human NK1 receptor-expressing 293T cells, room temperature 60 minutes, read-out: pIC50 (inverse logarithm of the concentration required for 50% inhibition of 125I-substance P binding) (converted)
T2 construct: expressed in transfected cells; host or cells: 293T cells (RIKEN), transient transfection with pcDNA3.1(-) plasmid
Procedure: Affinity for Human NK1 Receptor
(3) Measurement of Binding Affinity to Human NK1 Receptor
(3-1) Preparation of Membrane Fraction from Human NK1 Receptor-Expressing Cells
Human NK1 receptor-expressing cells were prepared in a 175 cm^2 culture flask (Nippon Becton Dickinson). The formation of a complex of the human NK1 receptor expression plasmid and Lipofectamine 2000 was performed by calculating the culture area ratio and increasing the scale of the method described in the above 2-4 by the ratio. The human NK1 receptor-expressing cells were collected in a buffer solution for the membrane fraction preparation (50 mM Tris (Wako Pure Chemical), 120 mM sodium chloride (Wako Pure Chemical Industries), 5 mM potassium chloride (Wako Pure Chemical Industries), 1 mM ethylenediaminetetraacetic acid (Sigma), 0.002 mg/mL chymostatin (Peptide Institute), 0.04 mg/bacitracin (Wako Pure Chemical Industries), 0.005 mg/mL phosphoramidon (Peptide Institute) and 0.5 mM phenylmethylsulfonyl fluoride (Wako Pure Chemical Industries), pH7.4) and centrifuged at 1,880 g for 10 minutes, and the cell sediment was suspended in the buffer solution for the membrane fraction preparation. After freezing and thawing the cells once, the cells were homogenized using a Dounce-type homogenizer (cooled on ice, 1000 rpm, 20 times). The homogenized cell suspension was centrifuged at 20,000 rpm for 10 minutes, and the supernatant was removed to obtain cell sediment. The cell sediment was suspended again in the buffer solution for the membrane fraction preparation and homogenized using a Dounce-type homogenizer (cooled on ice, 1000 rpm, 30 times). The cell suspension was centrifuged at 20,000 rpm for 10 minutes, and the supernatant was removed to obtain cell sediment. The same homogenization and centrifugation were repeated again, and final cell sediment was obtained. The final cell sediment was suspended in a buffer solution for the receptor binding test (50 mM Tris (Wako Pure Chemical Industries), 3 mM manganese chloride (Wako Pure Chemical Industries), 0.002 mg/mL chymostatin (Peptide Institute), 0.04 mg/bacitracin (Wako Pure Chemical Industries) and 0.02% bovine serum albumin (Sigma), pH 7.4), and the protein concentration was measured using BCA Protein Assay Kit (Pierce).
(3-2) Receptor Binding Test
The buffer solution for the receptor binding test was dispensed to the wells of a 96-well assay plate (Greiner) at 22.5 μL/well. DMSO solutions of a test compound, which were prepared at an 80-time higher concentration using 100% dimethyl sulfoxide (DMSO), were added to the wells at 2.5 μL/well (final concentrations of 1 nM to 100 nM), and the solutions were mixed. As a radiolabeled ligand, ^125I-substance P (Substance P, [^125I]Tyr^8-, PerkinElmer) was used. ^125I-substance P was diluted with the buffer solution for the receptor binding test to a concentration resulting in […] and added to the 96-well assay plate, and the solutions were mixed. The membrane fraction prepared from the human NK1 receptor-expressing cells was diluted with the buffer solution for the receptor binding test to a concentration resulting in 8 to 10 μg/well, suspended until the suspension became in such a homogenous state that the suspension could flow through a 27G injection needle smoothly and then added to the 96-well assay plate at 150 μL/well. Then, the plate was incubated at room temperature for 60 minutes while shaking the plate. […]

T2 sequence (P25103 whole entry): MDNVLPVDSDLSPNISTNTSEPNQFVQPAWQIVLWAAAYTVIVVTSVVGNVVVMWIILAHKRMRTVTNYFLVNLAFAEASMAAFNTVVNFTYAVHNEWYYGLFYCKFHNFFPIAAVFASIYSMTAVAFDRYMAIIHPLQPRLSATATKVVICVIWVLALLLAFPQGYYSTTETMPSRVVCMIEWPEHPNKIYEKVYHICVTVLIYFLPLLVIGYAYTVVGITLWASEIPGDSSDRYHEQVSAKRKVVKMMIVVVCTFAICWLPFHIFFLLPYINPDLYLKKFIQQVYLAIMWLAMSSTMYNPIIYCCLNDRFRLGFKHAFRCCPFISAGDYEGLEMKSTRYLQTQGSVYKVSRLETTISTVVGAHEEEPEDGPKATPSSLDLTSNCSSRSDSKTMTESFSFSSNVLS
T1 sequence (Q5DUB1 whole entry): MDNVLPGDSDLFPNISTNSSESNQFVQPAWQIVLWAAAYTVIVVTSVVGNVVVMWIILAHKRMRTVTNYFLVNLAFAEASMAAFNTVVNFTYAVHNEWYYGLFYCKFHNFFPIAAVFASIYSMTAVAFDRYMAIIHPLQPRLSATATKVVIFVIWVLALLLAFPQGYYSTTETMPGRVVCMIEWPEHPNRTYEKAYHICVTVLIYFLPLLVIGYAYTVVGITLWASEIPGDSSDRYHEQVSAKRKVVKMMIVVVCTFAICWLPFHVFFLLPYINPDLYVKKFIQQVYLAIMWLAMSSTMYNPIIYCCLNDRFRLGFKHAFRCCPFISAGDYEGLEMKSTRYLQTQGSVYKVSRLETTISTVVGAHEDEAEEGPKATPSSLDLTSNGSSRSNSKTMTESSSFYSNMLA

Cc1cc(F)ccc1[C@H]1CN(C[C@H]2CC[C@@H](CC(=O)O)CC2)CCN1C(=O)N(C)[C@H](C)c1cc(C(F)(F)F)cc(C(F)(F)F)c1 [Example 4, cis-{4-[(S)-4-{[(R)-1-(3,5-Bistrifluoromethylphenyl)ethyl]methylcarbamoyl}-3-(4-fluoro-2-methylphenyl)piperazin-1-ylmethyl]cyclohexyl}acetic acid]
Conc. (nM) (drug concentration in the brain) [1]: 162 nM
Inhibition(%) (foot-tapping inhibition rate) [2]: 100%
IC50 [3]: 0.851 nM

Cc1cc(F)ccc1[C@H]1CN(C[C@H]2CC[C@H](CC(=O)O)CC2)CCN1C(=O)N(C)[C@H](C)c1cc(C(F)(F)F)cc(C(F)(F)F)c1 [Example 5, trans-{4-[(S)-4-{[(R)-1-(3,5-Bistrifluoromethylphenyl)ethyl]methylcarbamoyl}-3-(4-fluoro-2-methylphenyl)piperazin-1-ylmethyl]cyclohexyl}acetic acid]
Conc. (nM) (drug concentration in the brain) [1]: 181 nM
Inhibition(%) (foot-tapping inhibition rate) [2]: 100%
IC50 [3]: 0.851 nM
